In article PMC9283668, “Natural and commercial antibiotic comparison with drugs modeling cell integrity cell stability of Bio-Kinetics changes under morphological topographies cells with lower toxicological characteristics for multidrug resistances problem” (Saudi Journal of Biological Sciences, 2022):

Tests used:
[1] = format: in vitro ADME
Method: Pharmacokinetic compartment modelling was used on these novel substances, which had been derived from A. […]. procera. The half-life was determined by the regions under plasma concentration, while the peak plasma concentration as well as timing acquired immediately from the dataset obtained in this investigation. Medicinal phyto-constituents were incorporated to the compartment model and an automatic calculating software tool was coupled with win-Nonlin ® Software to these bioactive chemicals.

[2] = Method: Pharmacokinetic compartment modelling was used on these novel substances, which had been derived from A. vasica and C. procera. The half-life was determined by the regions under plasma concentration, while the peak plasma concentration as well as timing acquired immediately from the dataset obtained in this investigation. Medicinal phyto-constituents were incorporated to the compartment model and an automatic calculating software tool was coupled with win-Nonlin ® Software to these bioactive chemicals.
Selected compounds were administered using a one-compartment oral dosage model, extract the one-compartment model parameters, the non-compartment model Parameters are necessary. The equations for non-compartment and one-compartment variables are given below respectively. • (1) w = (AUC, T max, T1/2) • (2) β = (ka, ke, V). • (3) β = (ke, V) • (4) CL po = V × Ke
If only oral clearance is required, CL po should be used instead of AUC. When it comes to IV dosage, however, just w = (AUC, T1/2) is required to claim the single dozes changes in (3).
Plasma concertation either orally or via an injection of selected compounds The natural antibiotic compounds by being taken into cells and either bacterial changes and it formed a tragedy to cells as expressed complete changes used in the formation of ATP in cells. The pharmacokinetic description of antibiotic compounds are shown in below equation and represented mathematically by equations (1), (2), (3), (4).(1) dSdt=rS,end+rS,ex-rS,elim (2) rS,end=f(t,S,I,G,E,F,A,KS,end) (3) rS,ex=g(t,MS) (4) rS,elim=h(t,S,I,E,KS,elim)

Row | Compound | Absorption capacity (Mean) [1] | AUC, area under plasma concentration (Mean) [2] | Half life (Mean) [2] | T max (Mean) [2]
1 | S-allylcysteine acid | 2.1 | 0.1 | 2.1 | 
2 | Myristyl diglucoside |  |  |  | 0.2
3 | CCCCC/C=C\C/C=C\CCCCCCCC(=O)O[C@H]1CC[C@@]2(C)C(=CC[C@H]3[C@@H]4CC[C@H]([C@H](C)CC[C@@H](CC)C(C)C)[C@@]4(C)CC[C@@H]32)C1 [B-Sitosteryl linoleate] |  | 0.1 |  | 
